Source: ChEMBL document CHEMBL1201862, “PubChem BioAssay data set” (2004)
Active and inactive are the calls of the source. Where a SMILES comes first, the peptide text is derived from it. Square brackets hold non-standard residues; d marks the D form. Peptide text beside a SMILES is read from it.

Experiments:
[1] = blockers of HIV-1 envelope-mediated cell-cell fusion – cherry-pick, dose response (AID 652057); type: functional, cell-based
[2] = blockers of HIV-1 ZM109 envelope-driven cell-cell fusion – HeLa effector, CEM target cells, luciferase, cherry-pick, dose response (AID 652058); type: functional, cell-based;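 further: luciferase signal from HIV-1 Env mediated cell-cell fusion of effector and target cells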
[3] = HIV-1 AD8 envelope cell-cell fusion blockers – cherry-pick, dose response (AID 652062); type: functional, cell-based;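 further: luciferase signal from cell-cell fusion driven by HIV-1 clade B AD8 Env; potency is for inhibitors of fusion seen as a drop in luminescence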
[4] = target: T1, Leucine aminopeptidase (Plasmodium falciparum 3D7, UniProt Q8IL11); assay: P. falciparum M17LAP inhibitors, primary screen, biochemical, fluorogenic H-Leu-NHMec substrate, 1536-well (AID 1619); type: functional
T1 sequence (Q8IL11 whole entry): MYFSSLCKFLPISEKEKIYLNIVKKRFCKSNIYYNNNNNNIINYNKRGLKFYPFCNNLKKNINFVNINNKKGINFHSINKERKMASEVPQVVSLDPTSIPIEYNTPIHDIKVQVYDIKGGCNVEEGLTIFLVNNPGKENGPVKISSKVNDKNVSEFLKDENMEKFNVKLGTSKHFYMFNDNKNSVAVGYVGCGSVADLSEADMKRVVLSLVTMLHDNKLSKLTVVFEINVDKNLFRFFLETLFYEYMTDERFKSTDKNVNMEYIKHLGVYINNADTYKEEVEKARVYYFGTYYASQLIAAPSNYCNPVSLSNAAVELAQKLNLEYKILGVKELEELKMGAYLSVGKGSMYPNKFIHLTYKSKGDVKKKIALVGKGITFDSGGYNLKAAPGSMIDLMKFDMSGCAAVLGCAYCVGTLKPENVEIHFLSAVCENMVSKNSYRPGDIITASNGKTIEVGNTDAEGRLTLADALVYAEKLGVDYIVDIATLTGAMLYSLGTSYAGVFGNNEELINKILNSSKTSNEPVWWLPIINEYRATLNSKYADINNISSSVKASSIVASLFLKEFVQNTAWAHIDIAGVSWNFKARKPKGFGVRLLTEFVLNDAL

[5] = target: Induced myeloid leukemia cell differentiation protein Mcl-1 (Homo sapiens, UniProt Q07820); type: functional
Sequence of Induced myeloid leukemia cell differentiation protein Mcl-1 (Q07820 whole entry): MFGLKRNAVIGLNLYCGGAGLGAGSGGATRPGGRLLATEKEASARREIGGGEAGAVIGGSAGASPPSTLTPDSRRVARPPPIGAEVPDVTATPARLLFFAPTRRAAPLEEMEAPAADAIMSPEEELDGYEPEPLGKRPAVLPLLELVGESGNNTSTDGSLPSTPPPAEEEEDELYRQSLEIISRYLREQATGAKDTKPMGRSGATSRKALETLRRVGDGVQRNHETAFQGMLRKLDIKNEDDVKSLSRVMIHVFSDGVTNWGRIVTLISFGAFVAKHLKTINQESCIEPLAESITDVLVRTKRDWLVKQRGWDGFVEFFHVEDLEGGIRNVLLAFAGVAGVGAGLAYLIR

[6] = target: Genome polyprotein (dengue virus type 2, UniProt P29990); assay: flavivirus cap methylation enzyme inhibition – biochemical, confirmation dose response, primary screen (AID 588689); type: functional
Sequence of Genome polyprotein (P29990 2492-3391 limits assumed): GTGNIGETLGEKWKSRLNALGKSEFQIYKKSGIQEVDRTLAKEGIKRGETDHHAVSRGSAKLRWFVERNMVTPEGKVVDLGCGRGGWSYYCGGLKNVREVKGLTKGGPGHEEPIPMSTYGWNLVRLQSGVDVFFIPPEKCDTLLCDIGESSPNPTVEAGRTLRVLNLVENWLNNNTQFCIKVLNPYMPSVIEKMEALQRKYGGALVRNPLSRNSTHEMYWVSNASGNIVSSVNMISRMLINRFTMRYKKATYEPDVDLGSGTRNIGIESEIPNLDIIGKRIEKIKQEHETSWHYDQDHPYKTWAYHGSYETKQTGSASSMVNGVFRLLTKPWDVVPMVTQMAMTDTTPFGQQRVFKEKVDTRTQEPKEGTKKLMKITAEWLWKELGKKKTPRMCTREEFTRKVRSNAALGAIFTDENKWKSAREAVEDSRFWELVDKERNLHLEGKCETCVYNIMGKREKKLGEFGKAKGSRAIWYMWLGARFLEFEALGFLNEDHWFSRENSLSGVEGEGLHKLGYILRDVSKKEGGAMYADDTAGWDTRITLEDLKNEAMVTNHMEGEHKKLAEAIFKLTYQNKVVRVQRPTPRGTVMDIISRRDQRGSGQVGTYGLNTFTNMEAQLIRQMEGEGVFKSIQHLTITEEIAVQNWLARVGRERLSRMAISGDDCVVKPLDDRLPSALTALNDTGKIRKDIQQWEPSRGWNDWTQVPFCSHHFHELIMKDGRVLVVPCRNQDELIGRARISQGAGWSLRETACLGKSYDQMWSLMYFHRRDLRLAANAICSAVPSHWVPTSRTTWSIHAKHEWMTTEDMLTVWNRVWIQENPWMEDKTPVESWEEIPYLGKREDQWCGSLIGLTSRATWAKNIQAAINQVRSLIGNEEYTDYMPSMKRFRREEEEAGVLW

[7] = target: T2, Carboxy-terminal domain RNA polymerase II polypeptide A small phosphatase 1 (Homo sapiens, UniProt Q9GZU7); assay: CTDSP1 inhibitors, concentration-response, biochemical, absorbance readout, ultra-high-throughput screen actives (AID 540297); type: functional
T2 sequence (Q9GZU7 whole entry): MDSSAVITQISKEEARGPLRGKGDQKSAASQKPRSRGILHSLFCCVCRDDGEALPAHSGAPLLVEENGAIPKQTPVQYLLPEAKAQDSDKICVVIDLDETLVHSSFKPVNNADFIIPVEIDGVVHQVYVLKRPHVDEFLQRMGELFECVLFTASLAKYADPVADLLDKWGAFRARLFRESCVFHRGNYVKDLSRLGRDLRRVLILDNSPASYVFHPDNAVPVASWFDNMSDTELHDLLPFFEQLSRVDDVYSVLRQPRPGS

[8] = system: P388/ADR; assay: cells; type: functional; settings: Mus musculus
[9] = system: SN12K1; assay: cells; type: functional; settings: Homo sapiens
[10] = system: P388; assay: cells; type: functional; settings: Mus musculus
[11] = target: Cytochrome P450 3A4 (Homo sapiens, UniProt P08684); settings: Potency;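 further: confirmatory qHTS run detecting inhibitors and substrates of CYP3A4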
Sequence of Cytochrome P450 3A4 (P08684 whole entry): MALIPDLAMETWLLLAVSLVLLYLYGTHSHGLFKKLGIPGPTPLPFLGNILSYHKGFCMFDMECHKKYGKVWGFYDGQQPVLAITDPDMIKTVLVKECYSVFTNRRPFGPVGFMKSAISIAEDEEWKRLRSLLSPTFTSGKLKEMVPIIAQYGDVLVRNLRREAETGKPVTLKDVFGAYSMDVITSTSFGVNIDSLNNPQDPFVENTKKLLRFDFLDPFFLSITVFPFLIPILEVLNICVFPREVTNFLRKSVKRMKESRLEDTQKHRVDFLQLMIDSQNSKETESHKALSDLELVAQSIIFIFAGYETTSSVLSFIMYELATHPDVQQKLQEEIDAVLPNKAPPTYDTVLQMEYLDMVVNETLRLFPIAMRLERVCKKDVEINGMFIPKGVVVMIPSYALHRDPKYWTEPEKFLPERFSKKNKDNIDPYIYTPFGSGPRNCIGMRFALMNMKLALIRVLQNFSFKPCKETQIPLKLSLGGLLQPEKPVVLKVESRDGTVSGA

[12] = intracellular Trypanosoma cruzi inhibitors in host cells – cell-based, plate reader, cherry-pick samples, set 3, dose response (AID 651818); type: functional;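 further: compounds incubated with infected cells for about four days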
[13] = system: BJ; assay: BJ-TERT fibroblast viability loss – cell-based, RAS-independent, luminescence, dose response (AID 1933); type: functional; settings: Homo sapiens
[14] = system: BJ; assay: cells; type: functional, cell-based; settings: Homo sapiens
[15] = system: BJ; assay: BJ-TERT-LT-ST fibroblast viability loss – cell-based, RAS-independent, luminescence, dose response (AID 1935); type: functional; settings: Homo sapiens;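 further: BJ fibroblasts immortalized with TERT plus LT and ST oncogenes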
[16] = DRD fibroblast viability loss – cell-based, non-viral oncogenic, luminescence, dose response (AID 1934); type: functional; settings: Homo sapiens
[17] = target: Large T antigen (Simian virus 40, UniProt P03070); type: functional, Betapolyomavirus macacae;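 further: Confirmatory-stage PubChem screen for compounds that inhibit SV40 T antigen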
Sequence of Large T antigen (P03070 whole entry): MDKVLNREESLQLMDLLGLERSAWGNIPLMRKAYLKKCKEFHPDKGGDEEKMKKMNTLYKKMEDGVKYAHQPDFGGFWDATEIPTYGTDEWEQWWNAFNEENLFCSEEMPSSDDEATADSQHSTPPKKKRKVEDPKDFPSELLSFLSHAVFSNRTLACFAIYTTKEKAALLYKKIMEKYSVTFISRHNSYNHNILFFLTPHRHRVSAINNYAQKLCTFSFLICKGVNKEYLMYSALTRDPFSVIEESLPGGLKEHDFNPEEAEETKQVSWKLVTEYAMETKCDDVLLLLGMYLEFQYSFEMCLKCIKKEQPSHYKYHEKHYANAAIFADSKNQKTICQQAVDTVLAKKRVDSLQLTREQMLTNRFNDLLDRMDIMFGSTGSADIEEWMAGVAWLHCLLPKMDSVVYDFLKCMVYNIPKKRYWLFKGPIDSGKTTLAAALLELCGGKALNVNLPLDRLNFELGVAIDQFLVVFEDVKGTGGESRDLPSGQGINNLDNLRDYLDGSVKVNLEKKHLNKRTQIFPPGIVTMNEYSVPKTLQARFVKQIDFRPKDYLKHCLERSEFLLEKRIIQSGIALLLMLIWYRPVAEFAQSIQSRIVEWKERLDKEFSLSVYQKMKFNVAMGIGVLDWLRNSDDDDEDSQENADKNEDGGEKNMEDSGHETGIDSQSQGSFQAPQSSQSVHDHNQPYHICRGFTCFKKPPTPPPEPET

[18] = A549 cell cytotoxicity, dose response, cytotoxicity control, plate reader, cherry-pick, antagonist series (AID 743412); type: functional, cell-based
[19] = toxicity toward HepG2 liver cells – cell-based, plate reader, cherry-pick, antagonist series, cytotoxicity control, dose response (AID 743416); type: functional
[20] = blockers of bursicon-stimulated LGR2 cAMP reporter – cell-based, HEK293, CRE-luciferase reporter, cherry pick, set 2, dose response (AID 743343); type: functional;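 further: transfected cells were stimulated with diluted bursicon conditioned medium after compound addition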
[21] = blockade of melanocortin 4 receptor signaling – cell-based, plate reader, cherry pick, counter-screen for LGR2 antagonist project, dose response (AID 743444); type: functional;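 further: transfected HEK 293 cells stimulated with alpha-MSH peptide; potency of inhibitors of the alpha-MSH evoked signal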
[22] = target: T3, Rac GTPase-activating protein 1 (Homo sapiens, UniProt Q9H0H5); assay: blockers of MgcRacGAP-driven Rac1 GTP hydrolysis – biochemical, ADP Hunter fluorescence, primary and confirmatory, confirmation (AID 624330); type: functional
T3 sequence (Q9H0H5 whole entry): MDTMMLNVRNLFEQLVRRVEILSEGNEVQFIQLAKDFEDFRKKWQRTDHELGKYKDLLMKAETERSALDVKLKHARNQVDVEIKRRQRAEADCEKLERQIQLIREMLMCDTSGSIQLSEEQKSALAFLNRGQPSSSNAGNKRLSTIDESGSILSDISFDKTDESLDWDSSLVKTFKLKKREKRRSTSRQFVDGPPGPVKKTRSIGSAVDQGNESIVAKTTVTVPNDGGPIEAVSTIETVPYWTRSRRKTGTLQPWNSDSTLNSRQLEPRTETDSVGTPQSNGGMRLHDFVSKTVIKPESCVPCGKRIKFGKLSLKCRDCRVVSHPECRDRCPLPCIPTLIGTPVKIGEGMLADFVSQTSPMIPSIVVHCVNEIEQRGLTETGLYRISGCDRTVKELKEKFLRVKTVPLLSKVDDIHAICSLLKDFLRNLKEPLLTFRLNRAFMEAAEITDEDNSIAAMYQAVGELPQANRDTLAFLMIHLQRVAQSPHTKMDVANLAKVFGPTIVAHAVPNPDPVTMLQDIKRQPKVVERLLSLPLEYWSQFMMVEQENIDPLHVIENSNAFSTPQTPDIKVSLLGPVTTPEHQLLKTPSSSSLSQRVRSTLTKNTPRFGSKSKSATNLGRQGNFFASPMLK

SMILES: CC(C)CC#Cc1ccc2c(c1)O[C@@H](CN(C)S(=O)(=O)c1cccc(F)c1)[C@@H](C)CN([C@H](C)CO)S2(=O)=O
- AC50 [1]: 5.91 µM (active)
- AC50 [2]: 0.919 µM (active)
- AC50 [3]: 26.5 µM (active)

SMILES: CCOC(=O)c1ccc(NC(=O)CN2C(=O)CSCC2=O)cc1
- IC50 [4]: 41.8 µM (active)

SMILES: CCCCNC(=O)c1ccc2nc(-c3ccco3)c(-c3ccco3)nc2c1
- IC50 [5]: 6.65 µM (active)
- IC50 [6]: 80.4 µM (active)
- IC50 [7]: 3.77 µM (active)

SMILES: O=C(CCN1CCOCC1)C(=Cc1ccccc1)C(=O)CCN1CCOCC1
- GI50 [8]: 0.255 µM (active)
- GI50 [9]: 2.32 µM (inactive)
- GI50 [10]: 0.392 µM (active)

SMILES: O=C(NC/C=C/CO)c1ccccc1
- GI50 [8]: > 100 µM (inactive)
- GI50 [9]: > 100 µM (inactive)
- GI50 [10]: > 100 µM (inactive)

SMILES: CCN1C[C@@]2(COC(=O)c3ccccc3N3C(=O)CC(C)C3=O)CC[C@H](OC)[C@]34C5C[C@H]6[C@@H](OC)C[C@@](O)(C5[C@H]6OC)C(O)(C13)[C@@H](OC)C24 (some centres not stated)
- AC50 [11]: 20 µM (inconclusive)

SMILES: COc1ccc(S(=O)(=O)Nc2ccc3c(c2)CC(=O)N([C@H](C)CO)C[C@@H](C)[C@@H](CN(C)S(=O)(=O)c2cccs2)O3)cc1
- AC50 [12]: 6.01 µM (active)

SMILES: CCSc1nnc(NC(=O)C2(C)Cc3ccccc3C(=O)O2)s1 (configuration not stated)
- IC50 [4]: 33.6 µM (active)

SMILES: Cc1ccc(Nc2nc(-c3cccnc3)nc3ccccc23)cc1
- EC50 [13]: 28.5 µM (active)
- EC50 [14]: 20.3 µM (active)
- EC50 [15]: > 150 µM (inconclusive)
- EC50 [16]: 15.8 µM (active)

SMILES: CC1(C)OC2CC3C4CC(F)C5=CC(=O)C=CC5(C)C4C(O)CC3(C)[C@]2(C(=O)CO)O1 (some centres not stated)
- AC50 [11]: 39.8 µM (inconclusive)

SMILES: CC(C)C[C@H](NC(=O)[C@H](CC(C)C)NC(=O)[C@@H](Cc1c[nH]c2ccccc12)NC(=O)[C@H](Cc1ccccc1)NC(=O)[C@@H](Cc1c[nH]c2ccccc12)NC(=O)[C@H](CCC(N)=O)NC(=O)[C@@H](CCC(N)=O)NC(=O)[C@@H]1CCCN1C(=O)[C@@H](CCCCN)NC(=O)[C@H]1CCCN1C(=O)[C@H](N)CCCN=C(N)N)C(N)=O (H-[dR][dP][dK]P[dQ]Q[dW]F[dW]LL-NH2)
- GI50 [8]: > 100 µM (inactive)
- GI50 [9]: > 100 µM (inactive)
- GI50 [10]: > 79.8 µM (inactive)

SMILES: CC1(C)C(O)CC(=O)[C@]2(C)C1CC(=O)[C@]1(C)C2CC[C@@]2(C)C(c3ccoc3)OC(=O)C3O[C@@]321 (some centres not stated)
- AC50 [11]: 10 µM (inconclusive)

SMILES: C[C@H]1CN([C@@H](C)CO)C(=O)c2cccc(NC(=O)CCCCCC(=O)Nc3ccccc3N)c2O[C@@H]1CN(C)Cc1ccc2c(c1)OCO2
- AC50 [12]: 1.72 µM (active)

SMILES: CCS(=O)(=O)Nc1ccc(Nc2c3ccccc3nc3ccccc23)c(OC)c1
- GI50 [8]: 0.0955 µM (active)
- GI50 [9]: 0.51 µM (active)
- GI50 [10]: < 0.01 µM (active)

SMILES: CC1NC(=O)CNC(=O)CNC(=O)C(Cc2ccc(O)cc2)NC(=O)C(C(C)C)NC(=O)C(C)NC1=O (configuration not stated) (cyclo(GGAAVY); configuration not given here)
- GI50 [8]: > 100 µM (inactive)
- GI50 [9]: > 100 µM (inactive)
- GI50 [10]: > 100 µM (inactive)

SMILES: CCC(=O)OC1CCC2C3CCc4cc(O)ccc4C3CC[C@]12C (some centres not stated)
- AC50 [11]: 39.8 µM (inconclusive)

SMILES: CC[C@H]1CN2CCc3cc(OC)c(OC)cc3[C@@H]2C[C@@H]1C[C@H]1NCCc2c1[nH]c1ccc(O)cc21 [TUBULOSINE]
- GI50 [8]: 0.493 µM (active)
- GI50 [9]: < 0.01 µM (active)
- GI50 [10]: < 0.01 µM (active)

SMILES: Cc1ccc2cc(CN(Cc3ccco3)C(=O)c3cccs3)c(O)nc2c1
- EC50 [13]: 13 µM (active)
- EC50 [14]: 74.4 µM (active)
- EC50 [15]: 5.07 µM (active)
- EC50 [16]: 4.87 µM (active)

SMILES: C[C@@H]1CN([C@@H](C)CO)C(=O)c2cccc(NC(=O)c3ccc(-c4nccs4)cc3)c2O[C@H]1CN(C)Cc1ccc(Oc2ccccc2)cc1
- AC50 [12]: 3.03 µM (active)

SMILES: ClCCN(CC#CCCCC#CCN(CCCl)CCCl)CCCl
- GI50 [8]: 2.44 µM (inactive)
- GI50 [9]: 10 µM (inactive)
- GI50 [10]: 0.736 µM (active)

SMILES: COc1ccc(NC(=O)Nc2ccc3c(c2)CC(=O)N([C@@H](C)CO)C[C@@H](C)[C@@H](CN(C)Cc2ccc(C(F)(F)F)cc2)O3)cc1
- AC50 [12]: 4.62 µM (active)

SMILES: Cc1ccc(S(=O)(=O)N(C)C[C@H]2Oc3c(NC(=O)Nc4ccc5c(c4)OCO5)cccc3C(=O)N([C@H](C)CO)C[C@@H]2C)cc1
- AC50 [12]: 6.64 µM (active)

SMILES: Cc1cccc(C(=O)Nc2ccc(O)cc2)c1
- IC50 [17]: 10.7 µM (active)

SMILES: Cc1cc(/N=N/c2ccc(/N=N/c3c(O)c(S(=O)(=O)O)cc4cc(S(=O)(=O)O)ccc34)cc2C)ccc1/N=N/c1ccc2cc(S(=O)(=O)O)cc(S(=O)(=O)O)c2c1
- GI50 [8]: 26.5 µM (inactive)
- GI50 [9]: > 100 µM (inactive)
- GI50 [10]: 42.8 µM (inactive)

SMILES: COC(=O)/C(=C1\OC(=O)C(c2ccccc2)C1=O)c1ccccc1 (configuration not stated)
- AC50 [11]: 39.8 µM (inconclusive)

SMILES: COc1ccc(-c2cc3nc(NCC4CCCCC4)n(C)c(=O)c3s2)cc1OC
- AC50 [18]: 45.8 µM (active)
- AC50 [19]: > 52 µM (inactive)
- AC50 [20]: 12.8 µM (active)
- AC50 [21]: 2.51 µM (active)

SMILES: CCCn1c(C)nc2c(NCCN3CCOCC3)nc(C)nc21
- AC50 [11]: 20 µM (inconclusive)

SMILES: C[C@@H]1CN([C@@H](C)CO)C(=O)Cc2cc(NS(=O)(=O)c3ccc(F)cc3)ccc2O[C@@H]1CN(C)Cc1ccc(Oc2ccccc2)cc1
- AC50 [12]: 3.56 µM (active)

SMILES: C/N=c1\scc(C)n1/N=C/c1cc(Br)c(O)c(OC)c1
- IC50 [17]: 5.8 µM (active)
- IC50 [22]: 14.4 µM (active)

SMILES: COc1ccc(NC(=O)Nc2ccc3c(c2)C(=O)N([C@@H](C)CO)C[C@H](C)[C@H](CN(C)S(=O)(=O)c2ccc(OC)cc2)O3)cc1
- AC50 [1]: 4.26 µM (active)
- AC50 [2]: 4.38 µM (active)
- AC50 [3]: 17.5 µM (active)
